This note sets out measurements from patent US11529511B2, “Using alternating electric fields to increase cell membrane permeability” (The Board of Trustees of the Leland Stanford Junior …, priority 2018, dated 2022).

Experiment [1] has as its system U87-MG cells. As to the kind of experiment: Timing of permeability to 7-AAD after cessation of the field, flow cytometry. Format: cell-based, human. The note with it: 300 kHz, 1.62 V/cm RMS, 24 h; 7-AAD added 15 minutes prior to cessation of the field. As for the experimental part: FIG. 7D depicts the results of an experiment to test how quickly the permeability drops back down after cessation of the alternating electric fields. More specifically, 7-Aminoactinomycin D (7-AAD) is a fluorescent chemical compound with a strong affinity for DNA. […] 7-AAD was introduced into samples at five different times: 15 minutes prior to the cessation of the alternating electric field; immediately after cessation of the alternating electric field; and 15, 30, and 60 minutes after cessation of the alternating electric field. In each case, the cells were incubated with 7-AAD for 30 minutes after introduction of the 7-AAD, followed by flow cytometry analysis of the percentage of cells with increased accumulation of the fluorescent 7-AAD for each of the different timings.

Experiment [2] concerns MDA-MB-435 human melanoma cell line cells. Description: Permeability to 7-AAD under alternating electric fields, flow cytometry. The note with it: 150 kHz, 24 h. The format is cell-based. As for the experimental part:
After this 15 minute period, alternating electric field application was terminated and the cells were incubated at room temperature for an additional 15 minutes.
After this 24 hour period, the alternating electric fields were turned off for 15 minutes, after which the 7-AAD was added. After waiting an additional 15 minutes, the percentage of cells with increased accumulation of the fluorescent 7-AAD was determined using flow cytometry.
A general note: In flow cytometry, cells or beads pass a laser one at a time.

In a further experiment the test system is KR158B. As to the kind of experiment: Bioluminescence of Renilla luciferase-expressing astrocytoma cells, TTFields vs. no TTFields. The format is cell-based, murine. As for the experimental part:
Studies were then performed that validate the hypothesis.
Renilla luciferase activity is not dependent upon ATP and magnesium (as opposed to firefly luciferase). Thus, it is believed that the induction of bioluminescence by TTFields was not due to alterations in endogenous pools of ATP.

A further experiment concerns MCF-7 cells, wild type. Description: Intracellular accumulation of mitoxantrone under alternating electric fields. Format: cell-based, human. The note with it: 2 μM, 1 h; 150 kHz, 1.62 V/cm vs. no field. Here is the method: (§1) The intracellular accumulation of mitoxantrone was then measured.
Experiment [3] concerns MCF-7 cells, mitoxantrone resistant. The experiment is described as above. The format is cell-based, human. The note with it: 2 μM, 1 h; 150 kHz, 1.62 V/cm vs. no field. As for the experimental part: as §1
Another experiment has as its target T1, firefly luciferase (Photinus pyralis, UniProt P08659).
T1 construct: purchased Sigma Aldrich Inc SRE0045-2MG
Description: Activity of purified firefly luciferase exposed to TTFields. Format: biochemical. The note with it: TTFields vs. no TTFields, p<0.01.

Another experiment concerns GBM39/Luc cells. Description: Drug sensitivity and synergy with TTFields. The format is cell-based, human. The note with it: TTFields for 3 days vs. no TTFields.
Experiment [4] relates to U87-MG cells. Description: 5-ALA uptake measured by PpIX fluorescence, single U87-MG culture. Format: cell-based, human. As for the experimental part: Experiments were performed to determine the effects of TTFields on uptake of 5-ALA (as measured by PpIX accumulation and its resultant fluorescence) in glioblastoma cells. Because it is difficult to distinguish the margin between tumor and normal cells using the present 5-ALA bioassay, the measurement of PpIX fluorescence was used to address this issue. Investigations were run to determine whether permeation of 5-ALA through the cellular membrane and into the glioblastoma cells could be increased with TTFields exposure. U87-MG cells were exposed or unexposed to TTFields, each for durations of 6-24 h.
All monovariant statistical comparisons between no TTFields vs. TTFields samples done by Student's t-test for n=3 experiments per time point.

For experiment [5], the system named is U87-MG GBM on PCS-201 fibroblast co-cultures. As to the kind of experiment: 5-ALA uptake (PpIX fluorescence) in U87-MG GBM on PCS-201 fibroblast co-cultures.
The subject of experiment [6] is U87-MG/eGFP-fLuc cells. As to the kind of experiment: Reversibility of the TTFields effect on uptake (BLI, PpIX, Dextran-FITC fluorescence). The format is cell-based, human. The note with it: TTFields 24 h vs. none vs. TTFields 24 h followed by 24 h no TTFields. From the text: All experimental conditions were done in triplicate.
In another experiment the test system is human glioblastoma cells. As to the kind of experiment: Growth inhibition by TTFields in conjunction with Withaferin A. Format: cell-based. From the text:
In this figure, 5-ALA=5-aminolevulinic acid; Ethidium D=ethidium bromide; and FITC=fluorescein isothiocyanate.

Experiment [7] deals with U87-MG/eGFP-fLuc cells. As to the kind of experiment: Annexin-V-APC binding (apoptosis) by fluorescence microscopy. Format: cell-based, human. The note with it: 21 μM, TTFields-unexposed. Here is the method: To test if the imposition of TTFields affects cell membrane properties, and thus membrane permeability, the effect of TTFields on the behavior of fluorescently tagged reagents that bind to the cellular membrane was determined. Initially, the impact of TTFields on the binding of Annexin-V-APC to the membrane of U87-MG/eGFP-fLuc cells was measured. Annexin-V-APC binding is a signature of early apoptosis which is characterized by ruffling of the membrane.

Another experiment deals with U87-MG/GFP-Luc cells. Description: Drug sensitivity and synergy with TTFields. Format: cell-based, human. The note with it: TTFields for 3 days vs. no TTFields.
For the next experiment, the system named is pcGBM2/GFP-Luc cells. The note with it: TTFields for 3 days vs. no TTFields.
A further experiment has as its system GBM39 cells. As to the kind of experiment: Drug sensitivity with TTFields. The note with it: TTFields for 3 days vs. no TTFields. Format: cell-based, human.
The next experiment concerns glioblastoma patients. As to the kind of experiment: Survival of glioblastoma patients, TTFields plus temozolomide vs. temozolomide alone. The format is in vivo, human. The note with it: after 1 year of TTFields exposure. From the text: The treatment of glioblastoma (GBM) using alternating electric fields is a novel, validated therapy that has become an additional modality (after surgery chemoradiation and chemotherapy) for anti-cancer treatments. Intermediate frequency alternating electric fields (100-500 kHz) have been studied in detail. […] In the context of treating tumors, alternating electric fields at these frequencies are often referred to as “tumor treating fields” or “TTFields.”
Recurrence of GBM is inevitable and the median time to first recurrence despite standard therapy is approximately 7 months. […] TTFields compliance (≥75% vs. <75%) was an independent predictor of overall survival in the retrospective analysis of the full EF-14 trial dataset and the duration of use of TTFields was also found to affect overall survival. […] Namely, a correlation between the length of TTFields exposure and the duration of its effect on cell membrane permeability after cessation of TTFields was observed. At lengths of TTFields exposure of 0.5-3 h, the duration in BLI augmentation (compared to no TTFields conditions) lasted about 5 min. However, at TTFields exposures of 12-25 h, this difference in BLI between TTFields and no TTFields conditions lasted for more than 20 min.

A further experiment deals with MES-SA cells. Description: Intracellular accumulation of doxorubicin under 150 kHz alternating electric fields. The format is cell-based. The note with it: 10 μM, 1 h, 1.62 V/cm RMS, 24 hours vs. no field.
In experiment [8] the test system is MDA-MB-435 cells, wild type. As to the kind of experiment: Intracellular accumulation of doxorubicin under alternating electric fields. Format: cell-based, human. The note with it: 10 μM, 1 h; 150 kHz, 1.62 V/cm vs. no field.
For a further experiment, the system named is MDA-MB-235 cells. As to the kind of experiment: Drug sensitivity and synergy with TTFields. The note with it: TTFields for 3 days vs. no TTFields. Format: cell-based.
Experiment [9] deals with MDA-MB-435 cells, doxorubicin resistant. Description: Intracellular accumulation of doxorubicin under alternating electric fields. Format: cell-based, human. The note with it: 10 μM, 1 h; 150 kHz, 1.62 V/cm vs. no field.
Experiment [10] deals with U87-MG/eGFP-fLuc cells. The note with it: TTFields 4 V/cm, 200 kHz, 0.5-24 h vs. no TTFields.
Description: U87-MG/eGFP-fLuc cells were seeded on Thermanox glass coverslips, allowed to settle and grow, and then subjected to either TTFields or no TTFields.
The coverslips were transferred to a ceramic dish of the Inovitro™ system, which in turn was mounted onto Inovitro™ base plates (Novocure Ltd., Haifa, Israel). Tumor treating fields at 200 kHz (1-4 V/cm) were applied through an Inovitro™ power generator. Incubator ambient temperatures spanned 20-27° C. with a target temperature of 37° C. in the ceramic dishes upon application of the TTFields. Duration of TTFields exposure lasted anywhere from 0.5 to 72 h, after which coverslips were removed and processed for the appropriate bioassays (see below). For reversibility experiments, the TTFields-exposed coverslips were transferred to a regular incubator without TTFields exposure for 24 h (off TTFields period to assess for reversibility of the TTFields effect on cell membrane permeability) prior to processing for the appropriate bioassays. Culture media were exchanged manually every 24 h throughout the experiments to account for evaporation. Corresponding control experiments (no TTFields) were done by placing equivalent coverslips within 6-well or 12-well plates into a conventional humidified tissue culture incubator (37° C., 95% air/5% CO2) and cells grown in parallel with the TTFields-exposed coverslips. […]

T1 sequence (P08659 whole entry): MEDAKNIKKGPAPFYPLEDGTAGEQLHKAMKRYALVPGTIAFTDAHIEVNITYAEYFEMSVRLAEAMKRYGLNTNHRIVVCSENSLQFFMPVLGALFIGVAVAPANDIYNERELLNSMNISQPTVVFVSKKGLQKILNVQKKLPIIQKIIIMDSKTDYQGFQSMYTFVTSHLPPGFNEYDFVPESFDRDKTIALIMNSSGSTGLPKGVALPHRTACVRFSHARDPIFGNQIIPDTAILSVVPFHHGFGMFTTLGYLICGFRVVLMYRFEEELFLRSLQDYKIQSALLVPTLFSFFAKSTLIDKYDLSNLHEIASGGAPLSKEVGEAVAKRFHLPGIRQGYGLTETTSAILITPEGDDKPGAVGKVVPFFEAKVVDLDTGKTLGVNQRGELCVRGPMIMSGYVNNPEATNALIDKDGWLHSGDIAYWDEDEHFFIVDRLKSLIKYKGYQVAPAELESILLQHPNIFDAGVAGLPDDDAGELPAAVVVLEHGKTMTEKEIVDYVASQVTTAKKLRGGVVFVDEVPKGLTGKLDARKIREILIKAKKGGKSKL

Regarding `Cc1c2oc3c(C)c(N)cc(C(=O)N[C@@H]4C(=O)N[C@H](C(C)C)C(=O)N5CCC[C@H]5C(=O)N(C)CC(=O)N(C)[C@@H](C(C)C)C(=O)O[C@@H]4C)c3nc-2c(C(=O)N[C@@H]2C(=O)N[C@H](C(C)C)C(=O)N3CCC[C@H]3C(=O)N(C)CC(=O)N(C)[C@@H](C(C)C)C(=O)O[C@@H]2C)c(N)c1=O` [7-AAD, 7-Aminoactinomycin D], the “percentage of cells with increased accumulation of 7-AAD” value was “significant increase in accumulation” in the experiment on U87-MG cells [1]; ~20% in experiment [2] (1.62V/cm, 7-AAD added 15 minutes after fields turned off); ~66% in [2] (1.62 V/cm, 7-AAD added for the last 15 minutes of the field).
Regarding `Oc1ccc(Cc2nc3c(Cc4ccccc4)nc(-c4ccc(O)cc4)cn3c2O)cc1` [coelenterazine], the “permeation of the luciferase substrate through the plasma membrane (bioluminescence)” value with KR158B is on record as “increased permeation”.
`O=C1c2c(O)ccc(O)c2C(=O)c2c(NCCNCCO)ccc(NCCNCCO)c21` [mitoxantrone]: the intracellular accumulation entry is on record as “increased” in the experiment on MCF-7 cells, wild type and “increased” in [3].
As to “firefly luciferase: purified firefly luciferase (SRE0045-2MG) purchased from Sigma Aldrich”, the “activity of purified firefly luciferase” value with firefly luciferase is “significantly decreased activity”.
Turning to `CCc1c2c(nc3ccc(OC(=O)N4CCC(N5CCCCC5)CC4)cc13)-c1cc3c(c(=O)n1C2)COC(=O)[C@]3(O)CC` [Irinotecan], the “sensitivity of cells to the drug” value in the experiment on GBM39/Luc cells is given as “improves the sensitivity”.
Turning to `NCC(=O)CCC(=O)O` [5-ALA, 5-aminolevulinic acid], the “uptake (PpIX fluorescence)” value is listed as “significantly increased uptake” in the experiment on U87-MG cells [4] (6 h TTFields (200 kHz) vs. no TTFields, p=0.047) and “increase was maintained” in the experiment on U87-MG cells [4] (24 h TTFields (200 kHz) vs. no TTFields, p=0.011). Moreover, the “rate of PpIX fluorescence intensity increase” value in experiment [5] (TTFields 2, 6, 24 h vs. unexposed co-cultures, p<0.001) is “significantly augmented”. Also, the “tumor to normal cell ratio for PpIX fluorescence” value in experiment [5] (TTFields vs. no TTFields) is “significantly enhances”. The “uptake with field and after cessation of the field” value in the experiment on U87-MG/eGFP-fLuc cells [6] was “reversibly increase uptake”.
Consider `CC1=C(CO)C(=O)O[C@@H]([C@@H](C)[C@H]2CC[C@H]3[C@@H]4C[C@H]5O[C@]56[C@@H](O)C=CC(=O)[C@]6(C)[C@H]4CC[C@]23C)C1` [Withaferin A], for which the “growth inhibition in conjunction with TTFields” value in the experiment on human glioblastoma cells is “synergistically inhibited the growth”. The “Annexin-V-APC binding (positive control for apoptosis)” value with U87-MG/eGFP-fLuc cells [7] is given as “could be visualized”.
Turning to `O=NN(CCCl)C(=O)NC1CCCCC1` [Lomustine], the “sensitivity of cells to the drug” value in the experiment with U87-MG/GFP-Luc cells, with pcGBM2/GFP-Luc cells and in the experiment with GBM39 cells was “improves the sensitivity” each time.
In the case of `Cn1nnc2c(C(N)=O)ncn2c1=O` [Temozolomide], in the experiment on glioblastoma patients, the “percent increase in overall survival” value amounted to 32%.
On to `COc1cccc2c1C(=O)c1c(O)c3c(c(O)c1C2=O)C[C@@](O)(C(=O)CO)C[C@@H]3O[C@H]1C[C@H](N)[C@H](O)[C@H](C)O1` [doxorubicin], for which the “increase of intracellular accumulation” value in the experiment with MES-SA cells is given as “more than 2 ×”. The intracellular accumulation entry in experiment [8] and in experiment [9] was “increased” each time. In addition, the “sensitivity of cells to the drug” value in the experiment on MDA-MB-235 cells is listed as “improves the sensitivity”.
`O=C(O)[C@H]1CSC(c2nc3ccc(O)cc3s2)=N1` [D-luciferin]: the “uptake with field and after cessation of the field” value with U87-MG/eGFP-fLuc cells [6] is “reversibly increase uptake”. In addition, the “permeation of the luciferase substrate through the plasma membrane (bioluminescence)” value in the experiment with U87-MG/eGFP-fLuc cells [10] is reported as “increased permeation”.
